This is an account of results in a melting point compilation (Tetko et al.; mined from patent text by program, amines drawn as free bases though some values may be those of a salt).

The structures appear in SMILES notation.

By melting point is commonly meant the temperature, or range, at which the solid turns liquid. The molecule `COc1ccc(NC(=O)c2ccc(C(C)(C)C#N)cc2)cc1` yielded a melting point of 164 to 168 °C.

`Cc1ccc(=O)[nH]c1C` displayed a melting point of 202 to 207 °C. `CC(C)(CO)CNc1cc(C(c2cc(F)ccc2F)S(=O)(=O)c2ccc(Cl)cc2)c(Cl)cn1` (configuration not stated): the melting point was 176 to 178 °C. In the case of `OC1(c2ccc3c(c2)OCO3)CCN(Cc2ccccc2)CC1`, the melting point worked out at 144 °C. For `O=C(O)CCc1cccc(Oc2cccc(-c3nnc(Nc4ccc(Cl)c(Cl)c4)s3)c2)c1` the value was 194 to 196 °C; for `COc1cc(OC)cc(Oc2ncccc2OCCCc2ccncc2O)c1`, 172 to 178 °C. The molecule `C#CC1(OC(=O)CC)C(COC(=O)c2ccc(Cl)cc2)OC(n2ccc(=O)[nH]c2=O)C1OC(=O)CC` (configuration not stated) yielded a melting point of 208 to 210 °C. Regarding `O=C(c1cccnc1)N1CC2CCC(C1)O2`, the melting point was 48 to 49.5 °C. For `CC12CC(F)C3c4ccc(O)cc4CC(CCCCCN4CCCC4)C3C1CCC2O` (configuration not stated) the value was 95 to 118 °C. As for `CCOCc1nc2c(N)nc3cc(N4CCC4=O)ccc3c2n1CCCOC(C)C`, the melting point lay in the range of 185 to 186 °C. Then `COC(=O)c1c(CBr)cccc1CBr`, with 76 to 79 °C. Then `Cc1ccc(S(=O)(=O)OCCCCCCCl)cc1`, with 27 to 28 °C. Then `COc1ccc(C2Sc3c(ccc4ccccc34)NC(=O)C2O)cc1` (configuration not stated), with 232 to 234 °C; and `CC1=C(Nc2ccc(C3=NNC(=O)CC3)cc2)CCC1=O`, with 284 to 285 °C; and `COc1ccc(S(=O)(=O)Nc2ccccc2NC(=O)c2cccnc2Cl)cc1`, with 133 to 135 °C. For `CC(C)(C)Oc1ccc(CCC(=O)NCCC(=O)O)cc1`, the melting point fell in the range of 70 to 72 °C.

`CCCCCCCCc1ccc(OCC(O)Cn2cccn2)cc1` (configuration not stated) came in with a melting point of 88 °C.

The molecule `CCN1CCN(CCOc2cc3ncc(C#N)c(Nc4cc(OC)c(Cl)cc4Cl)c3cc2OC)CC1` registered a melting point of 101 to 105 °C.

The molecule `O=C1N=c2cccc(OCCN3CCC(Cc4ccccc4)CC3)c2=NC1=O` gave a melting point of 244 to 245 °C. Then `NC(=O)N(CC(=O)OCCCCCCOC(=O)CN(C(N)=O)c1ccccc1)c1ccccc1`, with 131 to 140 °C; and `COC(=O)[C@H](Cc1cc(Cl)c(Oc2ccc3cc(OC)ccc3c2)c(Cl)c1)NC(=O)C(F)(F)F`, with 188 to 189 °C; and `CCN1c2ncc(CCc3cccc(C)c3)cc2C(=O)N(C)c2cccnc21`, with 103 to 104 °C. `CCCCCCCCCCCCCCCC[C@]1(CO)CC(=O)N1`: the melting point is 82 °C. Regarding `OCCCN1CCN2c3ccccc3Cc3ccccc3C2C1` (configuration not stated), the melting point was 127 to 128 °C. For `Cn1c(=O)c2c(nc(C=Cc3cccc(N(C(=O)OC(C)(C)C)C(=O)OC(C)(C)C)c3)n2C)n(C)c1=O` the value was 175 to 177 °C; for `Cc1nc2c3c(c(C(=O)NCCO)cc2n1C)CCC(c1ccccc1)O3` (configuration not stated), 228 to 229 °C; for `CC(=O)NC[C@H]1CN(c2ccc(N3CCC(n4nccn4)CC3)c(F)c2)C(=O)O1`, 197 °C. Turning to `NC(Cc1noc2ccccc12)=NO`, the melting point lay within 160 to 162 °C. Regarding `O=[N+]([O-])C1([N+](=O)[O-])COC1`, the melting point was 70 to 71 °C.

As for `O=C(O)Cc1ccc(Sc2ccc(O)cc2)cc1`, the melting point fell in the range of 163 to 165 °C. `COc1cccc(-c2nc3nccnc3[nH]2)c1` showed a melting point of 289 °C. For `OC1CSC(Oc2ccccc2-n2ccc3ccccc32)C(O)C1O` (configuration not stated) the value was 70 to 73 °C. `O=[N+]([O-])c1ccc(OCC2CC2)c(C(F)(F)F)c1` returned a melting point of 41 to 44 °C. Consider `O=[N+]([O-])c1ccc(SSn2nccn2)c(C(Cl)(Cl)Cl)c1`, for which the melting point is 189 °C. `COc1c(-c2ccc3cc(NS(C)(=O)=O)ccc3c2)cc(N2CCCNC2=O)cc1C(C)(C)C` showed a melting point greater than 300 °C. Regarding `O=C1c2cccc(O)c2C(=O)c2c(NCCCCO)ccc(O)c21`, the melting point is 168 °C. For the molecule `COc1ccc(CCNC(=O)C(=O)NCc2cccnc2)cc1OC1CCCC1`, the melting point was 148 to 149 °C.

In turn, `O=C1c2ccccc2C(=O)N1c1ccc(S(=O)(=O)NCCC2(C(=O)NCC(F)(F)F)c3ccccc3-c3ccccc32)cc1` showed a melting point of 235 to 237 °C. On to `O=C(O)[C@H]1CCC(=O)[C@@H](n2nc(-c3c(-c4ccccc4)nn4ccccc34)ccc2=O)C1` (relative stereo), for which the melting point lay in the range of 155 to 165 °C. Then `O=c1c2c(nc3ccc(Br)cn13)C(=Cc1ccc(Cl)cc1)CC2`, with 233 to 234 °C; and `Cc1c(C)c2c(c(C)c1OC(=O)c1ccccc1)SC(CCCOC(=O)c1ccccc1)O2` (configuration not stated), with 114 to 116 °C.

The molecule `Cc1ccc(C(=O)N[C@@H]2COc3c(C)ccc(N4CCN(C)CC4)c3C2)cc1` showed a melting point of 191 to 192 °C. The molecule `CCN(CC)CCCCNc1ncc2cc(-c3c(Cl)cccc3Cl)c(NC(=O)Nc3ccccc3)nc2n1` registered a melting point of 81 to 87.5 °C. For `Nc1ncnc2c1c(-c1cccc(O)c1)nn2Cc1oc2ccccc2c(=O)c1-c1cccc(F)c1` the value was 280 to 283 °C; for `Cc1c(CCN(C)C(=O)OC(C)(C)C)c2cc(S(=O)(=O)c3ccccc3)ccc2n1C`, 147 to 149 °C.

Regarding `O=C(O)CCCc1cc2nc(Cl)ccc2n1S(=O)(=O)c1ccc(N2CCCC2)cc1`, the melting point was determined as 88 °C. In turn, `Cc1noc(-c2nnc3c4ccccc4c(OCc4ncn(C)n4)nn23)n1` showed a melting point of 283 to 285 °C.

`Cc1oncc1C(=O)N1CCSCC1` returned a melting point of 64.5 to 65 °C. Then `Cc1nc2c(N)nc3cc(OCCC4CCN(C(=O)C5CCCC5)CC4)ccc3c2n1CC(C)C`, with 236 to 238 °C; and `COC1=CCCSC1c1cc(N2C(=O)C3=C(CCCC3)C2=O)ccc1Cl` (configuration not stated), with 116 to 119 °C; and `CC1(C)OC(=O)Nc2ccc(-c3cc(CC#N)ccc3F)cc21`, with 184 to 187 °C. `O=C(c1ccccc1)c1c[nH]c2ncnc(Nc3cccc(CO)c3)c12` yielded a melting point of 273 to 275 °C. `COC(=O)c1sc2nc(-c3ccccc3)cnc2c1N` showed a melting point of 197 to 198 °C. Then `CCCC1(CCC)c2cc(-c3ccc(Br)s3)ccc2-c2ccc(-c3ccc(Br)s3)cc21`, with 160 to 165 °C; and `CC(C)(CO)NS(=O)(=O)c1cc(NC(=O)c2cnn3c(C4CC4)cc(-c4ccc(Cl)cc4)nc23)c(Cl)s1`, with 238 to 241 °C; and `CNC(=O)N(O)CC#Cc1cccc(C2=N[C@H](c3ccccc3)CO2)c1`, with 163 to 165 °C. Then `COc1ccc2c(c1OC)CCCC2(O)CN` (configuration not stated), with 138 to 140 °C; and `O=C(O)CCCCCCCCC(=O)c1ccccc1O`, with 85 to 87 °C.

With `Cc1nc2cccc(S(=O)(=O)n3c(COC(C)C(=O)O)cc4nc(Cl)ccc43)c2s1` (configuration not stated), the melting point lay in the range of 203 to 205 °C. Then `CCOP(=O)(CCc1cc(OCc2ccc(OCc3nc(-c4ccco4)oc3C)c(OC)c2)nn1-c1ccccc1)OCC`, with 76 to 77 °C; and `O=c1oc2cc(O)c(O)cc2c(O)c1C1=CCOc2oc3ccccc3c(=O)c21`, with 258 to 260 °C; and `CC(C)(C)c1cc(CN=[N+]=[N-])nn1-c1ccc(S(C)(=O)=O)cc1`, with 115 to 117 °C.

Molecule `OC1CSC(Oc2cccc(-c3cncnc3)c2)C(O)C1O` (configuration not stated) displayed a melting point of 241 °C. For `CCCCNC(=O)Cc1ccc2c(c1)c(Cc1ccc(C(=O)NS(=O)(=O)c3ccccc3C)cc1OC)cn2CCC` the value was 100 to 102 °C. For `CSc1ccc(-c2csc3ccc(C(=O)NN)cc23)cc1` the value was 195 to 196 °C; for `COC(=O)c1ccc2cccc(C#N)c2c1`, 178 to 182 °C. For `Cc1csc(CC(=O)O)c1` the value was 49 °C; for `Clc1cccc(Nc2nccc(-c3ccnc(Cl)c3)n2)c1`, 144 to 147 °C.

For `CCOC(=O)CCc1cn(Cc2ccc(OCc3cn4c(-c5ccccc5)cccc4n3)cc2)nc1OCC`, the melting point is 104 to 105 °C.

`COCc1sc(N)nc1C` gave a melting point of 132 to 135 °C. For `Cc1ccc(C(=O)c2ccc(C(=O)c3ccc(C)cc3)cc2)cc1` the value was 178 to 187 °C; for `CS(=O)(=O)N1Cc2cccc(-c3ccc4cnc(Nc5ccc(C6CN(CC(N)=O)C6)cc5)nn34)c2C1`, 216 to 218 °C.

`N#CC(=C=Nc1nc2ccccc2[nH]1)C#N` gave a melting point of 340 to 345 °C. Regarding `O=CN1CCN(c2cc3c(cc2F)c(=O)c(C(=O)O)c2sccn23)CC1`, the melting point fell in the range of 335 to 336 °C.

With `O=C(O)C1C2OCCC21Br` (mixture of isomers), the melting point was 196 to 198 °C. Then `Cn1c(=O)cc(-c2cccc(Cl)c2)c2cc(Br)ccc21`, with 182 °C; and `COc1ccc(CN(c2ccc(F)c(Cl)c2)c2ncnc3cc(OCCCN4CCOCC4)c([N+](=O)[O-])cc23)cc1OC`, with 129 to 132 °C; and `O=C(O)c1ccc2c(COc3cccnc3)csc2c1`, with 248 to 250 °C. For `CCC(O)CN1N=C(c2ccc(Cl)cc2)C2CCC2C1=O` (configuration not stated) the value was 116 to 119 °C; for `N#CNc1ccccc1N1CCOCC1`, 175 to 176 °C. Then `NC(=O)c1nccc(Oc2ccc(N)cc2F)c1Cl`, with 217 to 218 °C. In turn, `C=CCNCC(COc1cccc2c1CC(=O)N2)OC(=O)C12CC3CC(CC(C3)C1)C2` (configuration not stated) came in with a melting point of 170 to 172 °C. For `CC(=O)OC1CCC2(C)C(CCC3C2CCC2(C)C(C(C)=O)CCC32)C1` (configuration not stated) the value was 141 to 142 °C; for `Cc1nc(NC(=O)c2cccc(S(C)(=O)=O)c2)sc1C(=O)NCc1ccccc1`, 111 to 113 °C. Then `CCOCc1nc2c(N)nc3ccccc3c2n1CC1(O)CCCC1`, with 156 to 158 °C; and `CCc1cn(C2CC(O)C(CNC(=O)Cc3ccccc3Br)O2)c(=O)nc1N` (configuration not stated), with 236 to 237 °C; and `O=C1Cc2cc(NC(=O)C(=O)N3CCC(Oc4ccc(F)cc4)CC3)ccc2N1`, with 147 to 149 °C.
